Activity calls are given as the source filed them. The rule behind the calls is not given here.
System: rodent lifetime carcinogenesis bioassay, tumor incidence TD50
Test: carcinogenic potency in animals, long-term in vivo studies, CPDB compilation (AID 1745844)

CCOC(=O)N(CC)N=O
TD50 (rat, strain Donryu, females, in drinking water, site: any site (literature study), lesion: several types, types named in the paper, dosed 51 weeks, study length 60 weeks): 0.0784 mg/kg/day | TD50 (rat, strain Donryu, females, in drinking water, site: duodenum, lesion: adenocarcinoma, dosed 51 weeks, study length 60 weeks): 0.555 mg/kg/day | TD50 (rat, strain Donryu, females, in drinking water, site: esophagus, lesion: papilloma, dosed 51 weeks, study length 60 weeks): 0.473 mg/kg/day | TD50 (rat, strain Donryu, females, in drinking water, site: esophagus, lesion: squamous-cell carcinoma, dosed 51 weeks, study length 60 weeks): 0.54 mg/kg/day | TD50 (rat, strain Donryu, females, in drinking water, site: forestomach, lesion: papilloma, dosed 51 weeks, study length 60 weeks): 0.508 mg/kg/day | TD50 (rat, strain Donryu, females, in drinking water, site: forestomach, lesion: squamous-cell carcinoma, dosed 51 weeks, study length 60 weeks): 0.248 mg/kg/day | TD50 (rat, strain Donryu, females, in drinking water, site: several sites, sites named in the paper, lesion: papilloma, dosed 51 weeks, study length 60 weeks): 0.339 mg/kg/day | TD50 (rat, strain Donryu, females, in drinking water, site: several sites, sites named in the paper, lesion: squamous-cell carcinoma, dosed 51 weeks, study length 60 weeks): 0.164 mg/kg/day | TD50 (rat, strain F344/DuCrj, females, in drinking water, site: any site (literature study), lesion: one or several types, types not named, dosed 97 weeks, study length 112 weeks): 0.135 mg/kg/day | TD50 (rat, strain F344/DuCrj, females, in drinking water, site: esophagus, lesion: papilloma, dosed 97 weeks, study length 112 weeks): 0.514 mg/kg/day | TD50 (rat, strain F344/DuCrj, females, in drinking water, site: esophagus, lesion: squamous-cell carcinoma, dosed 97 weeks, study length 112 weeks): 0.139 mg/kg/day | TD50 (rat, strain F344/DuCrj, females, in drinking water, site: forestomach, lesion: papilloma, dosed 97 weeks, study length 112 weeks): 0.0796 mg/kg/day | TD50 (rat, strain F344/DuCrj, females, in drinking water, site: forestomach, lesion: squamous-cell carcinoma, dosed 97 weeks, study length 112 weeks): 0.213 mg/kg/day | TD50 (rat, strain F344/DuCrj, females, in drinking water, site: oral cavity, lesion: papilloma, dosed 97 weeks, study length 112 weeks): 3.02 mg/kg/day | TD50 (rat, strain F344/DuCrj, females, in drinking water, site: oral cavity, lesion: squamous-cell carcinoma, dosed 97 weeks, study length 112 weeks): 0.784 mg/kg/day | TD50 (rat, strain F344/DuCrj, females, in drinking water, site: upper gastrointestinal tract, lesion: several types, types named in the paper, dosed 97 weeks, study length 112 weeks): 0.0553 mg/kg/day

O=C(Nc1nc(-c2ccc([N+](=O)[O-])o2)cs1)C(F)(F)F
TD50 (mouse, strain Swiss, females, in feed, site: any site (literature study), lesion: several types, types named in the paper, dosed 46 weeks, study length 55 weeks): 8.01 mg/kg/day | TD50 (mouse, strain Swiss, females, in feed, site: forestomach, lesion: several types, types named in the paper, dosed 46 weeks, study length 55 weeks): 9.98 mg/kg/day | TD50 (mouse, strain Swiss, females, in feed, site: forestomach, lesion: squamous-cell carcinoma, dosed 46 weeks, study length 55 weeks): 38.6 mg/kg/day | TD50 (mouse, strain Swiss, females, in feed, site: forestomach, lesion: squamous-cell papilloma, dosed 46 weeks, study length 55 weeks): 43.5 mg/kg/day | TD50 (rat, strain Sprague-Dawley, females, in feed, site: any site (literature study), lesion: several types, types named in the paper, dosed 46 weeks, study length 66 weeks): 5.58 mg/kg/day | TD50 (rat, strain Sprague-Dawley, females, in feed, site: mammary gland, lesion: adenocarcinoma, dosed 46 weeks, study length 66 weeks): 7.27 mg/kg/day | TD50 (rat, strain Sprague-Dawley, females, in feed, site: mammary gland, lesion: several types, types named in the paper, dosed 46 weeks, study length 66 weeks): 6.79 mg/kg/day

CC1CC(=O)O1 (stereo not given)
TD50 (rat, strain Eastern Sprague-Dawley, females, by gavage, site: forestomach, lesion: squamous-cell carcinoma, dosed 70 weeks, study length 70 weeks): 13.8 mg/kg/day

CC[C@H]1CN2CCc3cc(OC)c(OC)cc3[C@@H]2C[C@@H]1C[C@H]1NCCc2cc(OC)c(OC)cc21
TD50 (mouse, strain B6C3F1, females, i.p., site: any site (literature study), lesion: several types, types named in the paper, dosed 40 weeks, study length 78 weeks): 1.2 mg/kg/day | TD50 (mouse, strain B6C3F1, females, i.p., site: lung, lesion: alveolar/bronchiolar adenoma + alveolar/bronchiolar carcinoma, dosed 40 weeks, study length 78 weeks): 49.4 mg/kg/day | TD50 (mouse, strain B6C3F1, males, i.p., site: any site (literature study), lesion: several types, types named in the paper, dosed 44 weeks, study length 78 weeks): 0.552 mg/kg/day | TD50 (mouse, strain B6C3F1, males, i.p., site: liver, lesion: hepatocellular adenoma + hepatocellular carcinoma + neoplastic nodule, dosed 44 weeks, study length 78 weeks): 1.3 mg/kg/day | TD50 (mouse, strain B6C3F1, males, i.p., site: lung, lesion: alveolar/bronchiolar adenoma + alveolar/bronchiolar carcinoma, dosed 44 weeks, study length 78 weeks): 1.19 mg/kg/day | TD50 (rat, strain Sprague-Dawley, females, i.p., site: any site (literature study), lesion: several types, types named in the paper, dosed 52 weeks, study length 83 weeks): 0.235 mg/kg/day | TD50 (rat, strain Sprague-Dawley, males, i.p., site: any site (literature study), lesion: several types, types named in the paper, dosed 52 weeks, study length 83 weeks): 0.382 mg/kg/day

OC[P+](CO)(CO)CO
TD50 (mouse, strain B6C3F1, females, by gavage, site: any site (literature study), lesion: several types, types named in the paper, dosed 103 weeks, study length 104 weeks): 908 mg/kg/day (inactive) | TD50 (mouse, strain B6C3F1, females, by gavage, site: liver, lesion: hepatocellular adenoma + hepatocellular carcinoma + neoplastic nodule, dosed 103 weeks, study length 104 weeks): 200 mg/kg/day | TD50 (mouse, strain B6C3F1, females, by gavage, site: lung, lesion: alveolar/bronchiolar adenoma + alveolar/bronchiolar carcinoma, dosed 104 weeks, study length 105 weeks): 234 mg/kg/day | TD50 (mouse, strain B6C3F1, females, by gavage, site: multiple organs, lesion: malignant lymphoma, mixed type, dosed 104 weeks, study length 105 weeks): 15.7 mg/kg/day (inactive) | carcinogen call (mouse, strain B6C3F1, males, by gavage, site: any site (literature study), lesion: several types, types named in the paper, dosed 103 weeks, study length 104 weeks): negative (inactive) | TD50 (mouse, strain B6C3F1, males, by gavage, site: any site (literature study), lesion: several types, types named in the paper, dosed 104 weeks, study length 105 weeks): 47.3 mg/kg/day | TD50 (mouse, strain B6C3F1, males, by gavage, site: lung, lesion: alveolar/bronchiolar adenoma + alveolar/bronchiolar carcinoma, dosed 103 weeks, study length 104 weeks): 103 mg/kg/day | TD50 (mouse, strain B6C3F1, males, by gavage, site: lung, lesion: alveolar/bronchiolar adenoma + alveolar/bronchiolar carcinoma, dosed 104 weeks, study length 105 weeks): 78.5 mg/kg/day | TD50 (mouse, strain B6C3F1, males, by gavage, site: multiple organs, lesion: malignant lymphoma, histiocytic type + malignant lymphoma, mixed type + malignant lymphoma, lymphocytic type + malignant lymph, dosed 104 weeks, study length 105 weeks): 11.4 mg/kg/day (inactive) | TD50 (rat, strain Fischer 344, females, by gavage, site: any site (literature study), lesion: several types, types named in the paper, dosed 103 weeks, study length 104 weeks): 4.78 mg/kg/day (inactive) | TD50 (rat, strain Fischer 344, females, by gavage, site: any site (literature study), lesion: several types, types named in the paper, dosed 104 weeks, study length 106 weeks): 23.3 mg/kg/day (inactive) | TD50 (rat, strain Fischer 344, males, by gavage, site: any site (literature study), lesion: several types, types named in the paper, dosed 103 weeks, study length 104 weeks): 14.7 mg/kg/day | TD50 (rat, strain Fischer 344, males, by gavage, site: any site (literature study), lesion: several types, types named in the paper, dosed 104 weeks, study length 106 weeks): 1.78 mg/kg/day | TD50 (rat, strain Fischer 344, males, by gavage, site: liver, lesion: hepatocellular adenoma + hepatocellular carcinoma + neoplastic nodule, dosed 103 weeks, study length 104 weeks): 24.5 mg/kg/day | TD50 (rat, strain Fischer 344, males, by gavage, site: liver, lesion: hepatocellular adenoma + hepatocellular carcinoma + neoplastic nodule, dosed 104 weeks, study length 106 weeks): 12.4 mg/kg/day | TD50 (rat, strain Fischer 344, males, by gavage, site: multiple organs, lesion: mononuclear-cell leukemia, dosed 104 weeks, study length 106 weeks): 2.42 mg/kg/day (inactive) | TD50 (rat, strain Fischer 344, males, by gavage, site: pituitary gland, anterior, lesion: adenoma, NOS + carcinoma, NOS, dosed 104 weeks, study length 106 weeks): 3.3 mg/kg/day | TD50 (rat, strain Fischer 344, males, by gavage, site: pituitary gland, anterior, lesion: adenoma, NOS, dosed 104 weeks, study length 106 weeks): 3.56 mg/kg/day | TD50 (rat, strain Fischer 344, males, by gavage, site: subcutaneous tissue, lesion: fibroma, dosed 103 weeks, study length 104 weeks): 24.9 mg/kg/day (inactive)

C[C@]12C=CC(=O)C=C1CC[C@@H]1[C@@H]2[C@@H](O)C[C@@]2(C)[C@H]1CC[C@]2(O)C(=O)COC(=O)CCCc1ccc(N(CCCl)CCCl)cc1
TD50 (rat, strain Sprague-Dawley, females, by gavage, site: any site (literature study), lesion: benign tumor, dosed 78 weeks, study length 104 weeks): 14 mg/kg/day (inactive) | TD50 (rat, strain Sprague-Dawley, females, by gavage, site: any site (literature study), lesion: malignant tumor, dosed 78 weeks, study length 104 weeks): 21.6 mg/kg/day (inactive) | TD50 (rat, strain Sprague-Dawley, females, by gavage, site: external auditory canal, lesion: squamous-cell carcinoma, dosed 78 weeks, study length 104 weeks): 19.2 mg/kg/day

Nc1ccc(Nc2ccccc2)cc1
carcinogen call (mouse, strain B6C3F1, females, in feed, site: any site (literature study), lesion: several types, types named in the paper, dosed 48 weeks, study length 91 weeks): negative (inactive) | carcinogen call (mouse, strain B6C3F1, males, in feed, site: any site (literature study), lesion: several types, types named in the paper, dosed 48 weeks, study length 91 weeks): negative (inactive) | TD50 (mouse, strain B6C3F1, males, in feed, site: liver, lesion: hepatocellular adenoma + hepatocellular carcinoma + neoplastic nodule, dosed 48 weeks, study length 91 weeks): 213 mg/kg/day | carcinogen call (rat, strain Fischer 344, females, in feed, site: any site (literature study), lesion: several types, types named in the paper, dosed 78 weeks, study length 104 weeks): negative (inactive) | TD50 (rat, strain Fischer 344, males, in feed, site: any site (literature study), lesion: several types, types named in the paper, dosed 78 weeks, study length 104 weeks): 161 mg/kg/day (inactive)

O=C(O)c1ccc(O)c(O)c1
carcinogen call (hamster, strain Syrian Golden, females, in feed, site: liver, lesion: one or several types, types not named, dosed 49 weeks, study length 52 weeks): negative (inactive) | carcinogen call (hamster, strain Syrian Golden, females, in feed, site: lung, lesion: one or several types, types not named, dosed 49 weeks, study length 52 weeks): negative (inactive)

— PubChem BioAssay AID1745844 (Carcinogenic Potency Database (CPDB), 2022)
